Consider five compounds from patent US6727252B1, “Methods of modulating serine/threonine protein kinase function with 5-azaquinoxaline-based compounds” (Zentaris AG, priority 1997, dated 2004).

Where two headings read alike, the source gives them in different places.

The test system of data set [1] is 3T3/H-Ras (NIH 3T3 clone 7 cells expressing genomic fragment of oncogenic H-Ras). The data set can be described thus: Growth of NIH 3T3 cells over expressing H-Ras (SRB). It is filed as cell-based. The settings on record: Mus musculus, NIH3T3, 72 h; cell growth, 2% calf serum/DMEM, 3 days with compound. On the procedure: The following assay measures growth rates for NIH-3T3 cells expressing RAS. The purpose of the assay is to determine the effects of compounds on the growth of NIH 3T3 cells over expressing H-Ras.
3T3/H-Ras (NIH 3T3 clone 7 cells expressing genomic fragment of oncogenic H-Ras).
2% calf serum/DMEM+2 mM glutamine, Pen/Strep
(§1) 1. Trypsinize cells. Transfer […] of cell suspension to 10 mL of isotone. Count cells with a Coulter Counter.
2. Dilute cells in growth medium to 60,000 cell/mL. Transfer 100 µL of cells to each well in a 96-well flat bottom plate to give 6000 cells/well.
3. Use half of plate (4 rows) for each comound and quadruplicate wells for each comound concentration, and a set of 4 wells for medium control.
(§2) 4. Gently shake plates to allow for uniform attachment of the cells.
(§3) 5. Incubate the plates at 37 C in a 10% CO2 incubator.
1. In a 96-well round bottom plate, add 120 µL of growth medium containing 2×final % DMSO found in highest screening concentration of compound to columns 1 to 11. For example, if the highest concentration is […], and this is made from a 100 mM stock, 1×DMSO is 0.1%, so 2×DMSO is 0.2%. This plate is used to titrate out the compound, 4 rows per compound.
2. In a sterile 15 mL tube, make a 2×solution of the highest screening concentration of compound in growth medium plus 2×DMSO. 1 mL per cell line is needed. The starting concentration of the compound is usually 100 µM but this concentration may vary depending upon the solubility of the compound.
3. Transfer 240 µL of the 2×starting compound solution to qudruplicate wells in column 12 of the 96-well round bottom plate. Do 1:2 serial dilutions across the plate from right to left by transferring […] from column 12 to column 11, column 11 to 10 and so on through column 2. Transfer 100 µL of compound dilutions, and 100 µL of medium in column 1, onto […] medium on cells in corresponding wells of 96-well flat bottom plate. Total volume per well should be […].
4. Return the plate to the incubattor and incubate for 3 days.
(§4) 1. Aspirate or pour off medium. Add […] cold 10% TCA to each well to fix cells. Incubate plate for at least 60 min. at 4 C.
(§5) 2. Discard TCA and rinse wells 5 times with tap water. Dry plates upside down on paper towels.
(§6) 3. Stain cells with 100 µL/well 0.4% SRB for 10 min.
4. Pour of SRB and rinse wells 5 times with 1% acetic acid. Dry plates completely upside down on paper towels.
(§7) 5. Solubilize dye with 100 µL/well 10 mM Tris base for 5-10 min. on shaker.
6. Read plates on Dynatech ELISA Plate REader at 570 nm with reference at 630 nm.

Data set [2] has as its system A549 human lung carcinoma cells. The data set can be described thus: Growth of A549 cells (SRB). The class given is cell-based. As to conditions: cell growth. Here is the method: The following assay measures growth rates for A549 cells. The purpose of the assay is to determine the effects of compounds on the growth of A549 human lung carcinoma cells. A549 cells are readily accessible from commercial sources, such as ATCC (CCL185). […]
as §1
2. Dilute cells in growth medium to 20,000 cell/mL. Transfer 100 µL of cells to each well in a 96-well flat bottom plate to give 2000 cells/well.
3. Use half of plate (4 rows) for each compound and quadruplicate wells for each compound concentration, and a set of 4 wells for medium control.
as §2, §3
1. In a 96 well-round bottom plate, add 120 µL of growth medium containing 2×final %DMSO found in highest screening concentration of compound to columns 1 to 11. For example, if the highest screening concentration is 100 µM, and this is made from a 100 mM stock, 1×DMSO is 0.1%, so 2×DMSO is 0.2%. This plate is used to titrate out the compound, 4 rows per compound.
2. In a sterile 15 mL tube, make a 2×solution of the highest screening concentration of compound in growth medium plus. 2×DMSO. 1 mL per cell line is needed. The starting concentration of the compound is usually 100 µM but this concentration may vary depending upon the solubility of the compound.
3. Transfer 240 µL of the 2×starting compound solution to quadruplicate wells in column 12 of the 96-well round bottom plate. Do 1:2 serial dilutions across the plate from right to left by transferring […] from column 12 to column 11, column 11 to 10 and so on through column
2. Transfer 100 µL of compound dilutions, and 100 µL of medium in column 1, onto […] medium on cells in corresponding wells of 96-well flat bottom plate. Total volume per well should be 200 L.
4. Return the plate to the incubator and incubate for 3 days.
as §4, §5, §6
4. Pour off SRB and rinse wells 5 times with 1% acetic acid. Dry plates completely upside down on paper towels.
as §7
6. Read plates on Dynatech ELISA Plate Reader at 570 nm with reference at 630 nm.

[3] abbreviates: 2% FBS, read-out: IC50 (M) A549 (2% FBS).
Where [4] appears, read: growth medium 10% fetal calf serum in Ham's F12-K, read-out: IC50 (M) A549.

For `Oc1ccc(-c2cnc3ccc(Nc4ccccc4)nc3n2)cc1` [Compound A-1, 6-Phenylamino-3-(4-hydroxyphenyl)-5-azaquinoxaline], in data set [1], the IC50 came to 1.04 µM.

Compound `Oc1ccc(-c2cnc3ccc(NCc4ccccc4)nc3n2)cc1` [Compound A-2, 6-Benzylamino-3-(4-hydroxyphenyl)-5-Azaquinoxaline] came in with a melting point of 271 to 273 °C. Moreover, the half-inhibitory concentration (IC50) in data set [1] turned out to be 7.6 µM. Also, the IC50 in data set [2] (setting [3]) was over 1e-05 M. In addition, the IC50 in data set [2] (setting [4]) stood at 2.51e-05 M.

Consider `Fc1ccc(CNc2ccc3nc(-c4ccccc4)c(-c4ccccc4)nc3n2)cc1` [Compound A-6, 2,3-Diphenyl-6-(4-fluorobenzylamino)-5-azaquinoxaline], for which the IC50 in data set [1] is 13.5 µM; in data set [2] (setting [3]) it was over 1e-05 M; in data set [2] (setting [4]), 2.38e-05 M.

Turning to `Oc1ccc(-c2cnc3ccc(Nc4ccccc4Cl)nc3n2)cc1` [Compound A-36, 6-(2-Chlorophenylamino)3-(4-hydroxyphenyl)-5-azaquinoxaline], the IC50 in data set [1] is 0.18 µM.

As to `Clc1ccccc1Nc1ccc2ncc(-c3ccccc3)nc2n1` [Compound A-77, 6-(2-Chlorophenylamino)-3-phenyl-5-azaquinoxaline], the 50% inhibitory concentration (IC50) in data set [1] stood at 0.7 µM.

The term IC50 denotes the concentration that inhibits the measured activity by half. As usually defined, the melting point is the temperature of the solid-liquid transition.
